“And” between values parts separate entries of the source, which are not always exact repeats. Identical values can stand only once. “Also recorded” adds a separate entry of the source. Like-named read-outs stand apart in the source and are kept apart here.
Experiments:
C2C12 myotubes = experiment: SUnSET assay of protein synthesis; type: cell-based, mouse; conditions: 10 μM Dex 24 h, 12.5 μM BML-260
Experimental: The surface sensing of translation (SUnSET) assay was used to measured protein synthesis, in accordance with the published protocol (Vinel et al, [2018]). In brief, 1 μg/mL puromycin was added to the myotube cultures and cell lysates were then harvested 10 min later. Western blotting was carried out using an anti-puromycin 12D10 antibody (MABE343; Millipore).

[1] = Pharmacokinetics analysis, plasma (LC-MS/MS); type: in vivo, mouse; set-up: peak plasma concentration after injection: unit not given here; conditions: for Plasma Conc. / Plasma Conc., Mean / concentration at 0.25 h / concentration at 0.5 h / concentration at 1.5 h / concentration at 2 h / concentration at 8 h: 5 mg/kg (IP); for concentration at 0.25 h / concentration at 0.5 h / concentration at 1.5 h / concentration at 2 h / concentration at 8 h: intraperitoneal, 5 mg/kg
Experimental: (§1) Assessment of BML-260 pharmacokinetics (PK) was carried out by the company Chaon, Yongin-si, Republic of Korea. BML-260 was administered intraperitoneally at a dose of 5 mg/kg in an injection volume of 10 mL/kg. A total of 21 6-week-old male C57BL/6J mice were divided into two groups as follows: 1) PK (plasma) group (3 mice) and 2) PK (TA muscle) group (18 mice across 6 time points).
[…] Blood was centrifuged to obtain plasma that was then stored at −80 °C. For the PK (TA muscle) group, mice were euthanized at 0.5, 1, 1.5, 2, 6, and 12 h post-administration. The TA muscle was weighed and stored at −80 °C.
(§2) BML-260 levels in plasma and tissue samples were analyzed with liquid chromatography-tandem mass spectrometry (LC-MS/MS) using an Agilent 1200 HPLC system coupled with an AB Sciex 4000 QTrap MS/MS (Agilent Technologies, CA, USA). Quantification limits were determined based on a signal-to-noise ratio greater than 10, with precision below 20% and accuracy between 80% and 120%.

[2] = Pharmacokinetics analysis, TA muscle (LC-MS/MS); type: in vivo, mouse; conditions: for concentration at 0.5 h / concentration at 1 h / concentration at 1.5 h / concentration at 2 h / concentration at 6 h: male, C57BL/6J, mouse, tibialis anterior (TA) muscle, intraperitoneal, 5 mg/kg
Experimental: as §1
For the PK (plasma) group, blood samples were collected at 0.5, 1, 1.5, 2, 6, 12, and 24 h after administration, using orbital sinus collection. Blood was centrifuged to obtain plasma that was then stored at −80 °C. For the PK (TA muscle) group, mice were euthanized at 0.5, 1, 1.5, 2, 6, and 12 h post-administration. The TA muscle was weighed and stored at −80 °C.
as §2

[3] = 5 mg/kg IP, as read by referee #2

SMILES: O=C(O)c1ccc(N2C(=O)C(=Cc3ccccc3)SC2=S)cc1 (stereo in doubt) [BML-260]
- protein synthesis (puromycin incorporation) (C2C12 myotubes): prevented the reduction in protein synthesis
- Plasma Conc. ([1]; 0.25 h, individual animals): 15.310 ng/mL and 14.890 ng/mL
- Plasma Conc. ([1]; 0.5 h, individual animals): 9.450 ng/mL and 9.888 ng/mL
- Plasma Conc. ([1]; 1.5 h, individual animals): 6.230 ng/mL and 6.772 ng/mL
- Plasma Conc. ([1]; 2 h, individual animals): 5.288 ng/mL and 4.936 ng/mL
- Plasma Conc. ([1]; 8 h, individual animals): 0.232 ng/mL and 0.333 ng/mL
- Plasma Conc. ([1]; 12 h, individual animals): BQL
- Plasma Conc., Mean ([1]; 12 h, n = 3): BQL
- Plasma Conc. ([1]; 24 h, individual animals): BQL
- Plasma Conc., Mean ([1]; 24 h, n = 3): BQL
- detection in plasma after IP delivery ([1]; 5 mg/kg IP): detectable in the plasma immediately after intraperitoneal; also recorded: could be detected in the plasma
- time by which plasma concentration is undetectable [1, 3]: ~ 8 hours
- peak plasma concentration after injection ([1]; 5 mg/kg IP, as read by referee #2 from the PK figure): 16
- concentration at 0.25 h ([1]; male, C57BL/6J, mouse, plasma, 0.25 h, individual animals, read-out: Plasma Conc.): 18.1 ng/mL
- concentration at 0.25 h ([1]; male, C57BL/6J, mouse, plasma, 0.25 h, n = 3, read-out: Plasma Conc., Mean): 16.1 ng/mL
- concentration at 0.5 h ([1]; male, C57BL/6J, mouse, plasma, 0.5 h, individual animals, read-out: Plasma Conc.): 11.4 ng/mL
- concentration at 0.5 h ([1]; male, C57BL/6J, mouse, plasma, 0.5 h, n = 3, read-out: Plasma Conc., Mean): 10.3 ng/mL
- concentration at 1.5 h ([1]; male, C57BL/6J, mouse, plasma, 1.5 h, individual animals, read-out: Plasma Conc.): 6.66 ng/mL
- concentration at 1.5 h ([1]; male, C57BL/6J, mouse, plasma, 1.5 h, n = 3, read-out: Plasma Conc., Mean): 6.55 ng/mL
- concentration at 2 h ([1]; male, C57BL/6J, mouse, plasma, 2 h, individual animals, read-out: Plasma Conc.): 4.85 ng/mL
- concentration at 2 h ([1]; male, C57BL/6J, mouse, plasma, 2 h, n = 3, read-out: Plasma Conc., Mean): 5.03 ng/mL
- concentration at 8 h ([1]; male, C57BL/6J, mouse, plasma, 8 h, individual animals, read-out: Plasma Conc.): 0.248 ng/mL
- concentration at 8 h ([1]; male, C57BL/6J, mouse, plasma, 8 h, n = 3, read-out: Plasma Conc., Mean): 0.271 ng/mL
- half-life ([1]; male, C57BL/6J, mouse, plasma, 5 mg/kg IP, as read by referee #2): ~1 h
- Muscle Conc. ([2]; 5 mg/kg (IP), 0.5 h, TA muscle, dilution factor 4, individual animals): 0.350 µg/g and 0.280 µg/g
- Muscle Conc. before dilution factor ([2]; 5 mg/kg (IP), 0.5 h, TA muscle, individual animals): 87.62 ng/mL and 70.09 ng/mL
- Muscle Conc. ([2]; 5 mg/kg (IP), 1 h, TA muscle, dilution factor 4, individual animals): 0.335 µg/g and 0.367 µg/g
- Muscle Conc. before dilution factor ([2]; 5 mg/kg (IP), 1 h, TA muscle, individual animals): 83.78 ng/mL and 91.76 ng/mL
- Muscle Conc. ([2]; 5 mg/kg (IP), 1.5 h, TA muscle, dilution factor 4, individual animals): 0.220 µg/g and 0.191 µg/g
- Muscle Conc. before dilution factor ([2]; 5 mg/kg (IP), 1.5 h, TA muscle, individual animals): 54.90 ng/mL and 47.79 ng/mL
- Muscle Conc. ([2]; 5 mg/kg (IP), 2 h, TA muscle, dilution factor 4, individual animals): 0.165 µg/g and 0.133 µg/g
- Muscle Conc. before dilution factor ([2]; 5 mg/kg (IP), 2 h, TA muscle, individual animals): 41.20 ng/mL and 33.33 ng/mL
- Muscle Conc. ([2]; 5 mg/kg (IP), 6 h, TA muscle, dilution factor 4, individual animals): 0.013 µg/g and 0.024 µg/g
- Muscle Conc. before dilution factor ([2]; 5 mg/kg (IP), 6 h, TA muscle, individual animals): 3.25 ng/mL and 5.89 ng/mL
- Muscle Conc. ([2]; 5 mg/kg (IP), 12 h, TA muscle, dilution factor 4, individual animals): BQL
- Muscle Conc. before dilution factor ([2]; 5 mg/kg (IP), 12 h, TA muscle, individual animals): 1.21 ng/mL and 0.79 ng/mL and 1.75 ng/mL
- Muscle Conc., Mean ([2]; 5 mg/kg (IP), 12 h, TA muscle, n = 3): BQL
- delay until peak detection in skeletal muscle (tibialis anterior) ([2]; 5 mg/kg IP): approximately 20 min
- skeletal muscle level relative to that needed for enzyme inhibition ([2]; 5 mg/kg IP): may not reach levels where it can function as an enzymatic inhibitor
- peak muscle level [2, 3]: ~ 0.35 ug/g tissue
- time of peak muscle level [2, 3]: ~ 1 hour
- half maximal inhibitor concentration in muscle ([2]; crude estimate of referee #2 with 1 g tissue = 1 ml): ~ 0.5 uM
- concentration at 0.5 h ([2]; 5 mg/kg (IP), 0.5 h, TA muscle, dilution factor 4, individual animals, read-out: Muscle Conc.): 338 ng/g
- concentration at 0.5 h ([2]; 5 mg/kg (IP), 0.5 h, TA muscle, individual animals, read-out: Muscle Conc. before dilution factor): 84.6 ng/mL
- concentration at 0.5 h ([2]; 5 mg/kg (IP), 0.5 h, TA muscle, n = 3, read-out: Muscle Conc., Mean): 323 ng/g
- concentration at 1 h ([2]; 5 mg/kg (IP), 1 h, TA muscle, dilution factor 4, individual animals, read-out: Muscle Conc.): 347 ng/g
- concentration at 1 h ([2]; 5 mg/kg (IP), 1 h, TA muscle, individual animals, read-out: Muscle Conc. before dilution factor): 86.7 ng/mL
- concentration at 1 h ([2]; 5 mg/kg (IP), 1 h, TA muscle, n = 3, read-out: Muscle Conc., Mean): 350 ng/g
- concentration at 1.5 h ([2]; 5 mg/kg (IP), 1.5 h, TA muscle, dilution factor 4, individual animals, read-out: Muscle Conc.): 231 ng/g
- concentration at 1.5 h ([2]; 5 mg/kg (IP), 1.5 h, TA muscle, individual animals, read-out: Muscle Conc. before dilution factor): 57.7 ng/mL
- concentration at 1.5 h ([2]; 5 mg/kg (IP), 1.5 h, TA muscle, n = 3, read-out: Muscle Conc., Mean): 214 ng/g
- concentration at 2 h ([2]; 5 mg/kg (IP), 2 h, TA muscle, dilution factor 4, individual animals, read-out: Muscle Conc.): 166 ng/g
- concentration at 2 h ([2]; 5 mg/kg (IP), 2 h, TA muscle, individual animals, read-out: Muscle Conc. before dilution factor): 41.5 ng/mL
- concentration at 2 h ([2]; 5 mg/kg (IP), 2 h, TA muscle, n = 3, read-out: Muscle Conc., Mean): 155 ng/g
- concentration at 6 h ([2]; 5 mg/kg (IP), 6 h, TA muscle, dilution factor 4, individual animals, read-out: Muscle Conc.): 16 ng/g
- concentration at 6 h ([2]; 5 mg/kg (IP), 6 h, TA muscle, individual animals, read-out: Muscle Conc. before dilution factor): 3.9 ng/mL
- concentration at 6 h ([2]; 5 mg/kg (IP), 6 h, TA muscle, n = 3, read-out: Muscle Conc., Mean): 17 ng/g

Source: paper PMC12162873, “Modulating phosphatase DUSP22 with BML-260 ameliorates skeletal muscle wasting via Akt independent JNK-FOXO3a repression” (EMBO Molecular Medicine, 2025)
